# Biological target: T1, cathepsin E (catE) versus beta-secretase (BACE) (Homo sapiens, UniProt P14091)
# T1 sequence (P14091 54-396): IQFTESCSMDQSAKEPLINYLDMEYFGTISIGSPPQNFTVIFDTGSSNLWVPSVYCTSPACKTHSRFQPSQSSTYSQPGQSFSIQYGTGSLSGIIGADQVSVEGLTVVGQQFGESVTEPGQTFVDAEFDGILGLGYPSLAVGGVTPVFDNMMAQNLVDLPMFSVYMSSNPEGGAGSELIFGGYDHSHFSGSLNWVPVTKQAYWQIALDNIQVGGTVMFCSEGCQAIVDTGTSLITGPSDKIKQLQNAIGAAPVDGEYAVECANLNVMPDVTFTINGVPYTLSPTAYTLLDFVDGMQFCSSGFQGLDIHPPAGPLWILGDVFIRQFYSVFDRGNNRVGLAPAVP
# Assay: CatE/BACE selectivity (ratio of IC50 values)
# Type: biochemical
# Conditions: each value is an average of four experimental runs; multiple values = more than one experiment
# Method: (§1) Investigation of potential beta-secretase inhibitors produced compounds with increased selectivity for beta-secretase over other aspartyl proteases such as cathepsin D (catD), cathepsin E (catE), Human Immunodeficiency Viral (HIV) protease, and renin. Selectivity was calculated as a ratio of inhibition (IC50) values in which the inhibition of beta-secretase was compared to the inhibition of other aspartyl proteases.
# The compounds of formula (I) can be selective for beta-secretase versus catE. […] Selectivity is reported as the ratio of IC50(catE):IC50(BACE).
# (§2) In the following examples, each value is an average of four experimental runs and multiple values for one compoundd indicate that more than one experiment was conducted.
row,Compound,IC50 CatE/IC50 BACE
1,CC(C)(C)c1cccc(C2(NCC(O)C(Cc3cc(F)cc(F)c3)NC(=O)CCCC(=O)O)CCCCC2)c1 (stereo not drawn) [Example 325B-3],3.4
2,CC(C)(C)c1cccc(C2(NCC(O)C(Cc3cc(F)cc(F)c3)NC(=O)COCC(=O)O)CCCCC2)c1 (stereo not drawn) [Example 325B-4],3.2
3,CC(C)(C)c1cccc(C2(NCC(O)C(Cc3cc(F)cc(F)c3)NC(=O)c3csc(NS(C)(=O)=O)n3)CCCCC2)c1 (stereo not drawn) [Example 325B-5],1.2
4,CC(C)(CCC(=O)NC(Cc1cc(F)cc(F)c1)C(O)CNC1(c2cccc(C(C)(C)C)c2)CCCCC1)C(=O)O (stereo not drawn) [Example 325B-1],8.3

# Biological target: cathepsin D (catD) versus beta-secretase (BACE) (Homo sapiens, UniProt P07339)
# Assay: CatD/BACE selectivity (ratio of IC50 values)
# Type: biochemical
# Conditions: each value is an average of four experimental runs; multiple values = more than one experiment
# Method: as §1
# The compounds of formula (I) can be selective for beta-secretase versus catD.
# as §2
# Sequence of cathepsin D (catD) versus beta-secretase (BACE) (P07339 65-412): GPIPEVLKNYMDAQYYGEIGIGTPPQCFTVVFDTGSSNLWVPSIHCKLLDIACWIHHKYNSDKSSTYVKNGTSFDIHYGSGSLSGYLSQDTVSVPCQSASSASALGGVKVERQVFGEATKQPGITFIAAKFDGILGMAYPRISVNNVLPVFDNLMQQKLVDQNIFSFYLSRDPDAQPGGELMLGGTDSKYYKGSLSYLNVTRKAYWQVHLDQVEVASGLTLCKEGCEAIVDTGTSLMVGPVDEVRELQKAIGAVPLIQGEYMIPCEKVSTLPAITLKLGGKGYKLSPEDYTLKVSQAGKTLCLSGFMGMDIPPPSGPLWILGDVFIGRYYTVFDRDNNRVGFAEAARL
row,Compound,IC50 CatD/IC50 BACE
1,CN(c1cccc(C(=O)NC(Cc2cc(F)cc(F)c2)C(O)CNC2(c3cccc(C(C)(C)C)c3)CCCCC2)c1)S(C)(=O)=O (stereo not drawn) [Example 325A-2],3.1
2,CC(C)(CCC(=O)NC(Cc1cc(F)cc(F)c1)C(O)CNC1(c2cccc(C(C)(C)C)c2)CCCCC1)C(=O)O (stereo not drawn) [Example 325A-5],1.7
3,CC(C)(C)c1cccc(C2(NCC(O)C(Cc3cc(F)cc(F)c3)NC(=O)CCCC(=O)O)CCCCC2)c1 (stereo not drawn) [Example 325A-4],1.9
4,CC(C)(C)c1cccc(C2(NCC(O)C(Cc3cc(F)cc(F)c3)NC(=O)COCC(=O)O)CCCCC2)c1 (stereo not drawn) [Example 325A-3],2.0
5,CC(C)(C)c1cccc(C2(NCC(O)C(Cc3cc(F)cc(F)c3)NC(=O)c3csc(NS(C)(=O)=O)n3)CCCCC2)c1 (stereo not drawn) [Example 325A-6],5.0
